Test results published in patent US20240262845A1, “PYRIDINIUM SALTS, METHODS OF MAKING, AND METHODS OF USE” (UNIVERSITY OF WYOMING, priority 2023, published 2024).
Structures can show the parent of a compound that is named as a salt.

Assays:
lysozyme = molecular target: T1, lysozyme (Gallus gallus, UniProt P00698); test: Photochemical labeling of lysozyme with pyridinium salts (General Procedure B, LC/MS); assay type: biochemical, chicken
T1 construct: Lysozyme (from chicken egg white, >40,000 units/mg of protein); purchased Sigma Aldrich; host or cells: chicken egg white
Method: (§1) General Procedure B: Photochemical Irradiation of Peptides and Proteins: To a 2 mL Pyrex LC/MS vial (Thermo model #03-391-39) were sequentially added solutions containing the desired biomolecule, glutathione (GSH), pyridinium salt, and ammonium acetate (NH4OAc). The resulting solution was diluted to a final volume of 500 μL and then sparged using nitrogen for a minimum of 30 minutes prior to irradiation. The actively sparging solution was then placed in an EvoluChem™ PhotoRedOx Box photoreactor that was equipped with a Kessil, PR160 427 nm LED Lamp and was then irradiated (100% lamp intensity) for the designated time at room temperature while maintaining active sparging. The resultant reaction mixture was then analyzed directly by LC/MS. Analysis of labeling outcomes using LC/MS was performed either by extracted ion chromatogram intensities (method A) or by integrating the area under the peaks associated with peptide content (method B). These values were totaled, and estimated percentages were assigned according to relative intensities of peaks or ion counts.
Labeling of Lysozyme with Pyridinium Salt 2a (Lysozyme-2a Conjugate). Labeling of lysozyme (14.3 kDa) with the pyridinium salt 2a was performed by following general procedure B using the following solutions: lysozyme (27 μL, 182 μM, 10 μM final concentration), pyridinium salt 2a (200 μL, 500 μM, 200 μM final concentration), NH4OAc (100 μL, 100 mM, pH=6.9, 20 mM final concentration), glutathione (15 μL, 10 mM, 300 μM final concentration), and water (158 μL) with a 100% intensity irradiation time of 60 minutes. The reaction mixture was analyzed directly by LC/MS using method A and was estimated to have proceeded in >95% conversion and a 10.9:1 mono:di labeled ratio and 10% glutathionylation of all unlabeled and labeled protein content was observed.
Labeling of Lysozyme with Pyridinium Salt 2b (Lysozyme-2b Conjugate). Labeling of lysozyme (14.3 kDa) with the pyridinium salt 2b was performed by following general procedure Busing the following solutions: lysozyme (19 μL, 262 μM, […]), 2b (181 μL, 554 μM, 200 μM final concentration), NH4OAc (50 μL, 200 mM, pH=6.9, 20 mM final concentration), glutathione (50 μL, 3 mM, 300 μM final concentration), and water (200 μL) with a 100% intensity irradiation time of 10 minutes. The reaction mixture was analyzed directly by LC/MS using method A and was estimated to have proceeded with 83% conversion. […]
Labeling of Lysozyme with Pyridinium Salt 2c (Lysozyme-2c Conjugate). […] The reaction mixture was analyzed directly by LC/MS using method A and was estimated to have proceeded with 85% conversion and a 3.7:1 mono:di labeled ratio and 10% glutathionylation of all protein content was observed. […]

Leuprolide = test: Photochemical labeling of leuprolide with pyridinium salt (General Procedure B, LC/MS); assay type: biochemical; conditions: 10 μM leuprolide, 100 μM pyridinium salt, 300 μM glutathione, 30 min
Method: as §1
Labeling of Leuprolide with Pyridinium Salt 2a (Leuprolide-2a Conjugate). […] The reaction mixture was analyzed directly by LC/MS using method B and was estimated to have proceeded with 91% conversion, a >20:1 mono:di labeled ratio, and 4% of +1 label+glutathionylation. […]

T1 sequence (P00698 19-147): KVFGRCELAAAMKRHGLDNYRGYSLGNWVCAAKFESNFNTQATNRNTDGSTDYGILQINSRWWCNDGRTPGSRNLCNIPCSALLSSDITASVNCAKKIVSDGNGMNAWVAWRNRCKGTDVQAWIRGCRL

labeling rate compared to pyridinium salt 2a (lysozyme; lysozyme labeling)	SMILES	+1 label+glutathionylation (Leuprolide) [%]	Modified Trp (lysozyme; trypsin digest, MS-MS)
much faster rate	COc1ccc2cc(-c3cc(C)[n+](N(C)C(=O)OCCCCC[C@H]4SC[C@H]5NC(=O)N[C@H]54)c(C)c3)ccc2c1 (stereo in doubt) [pyridinium salt 2b, 4-(6-methoxynaphthalen-2-yl)-2,6-dimethyl-1-(methyl(((5-((3aR,4R,6aS)-2-oxohexahydro-1H-thieno[3,4-d]imidazol-4-yl)pentyl)oxy)carbonyl)amino)pyridin-1-ium tetrafluoroborate]		
	COC(=O)N(C)[n+]1c(C)cc(-c2ccc3cc(OC)ccc3c2)cc1C [pyridinium salt 2a, 1-((methoxycarbonyl)(methyl)amino)-4-(6-methoxynapthalen-2-yl)-2,6-dimethylpyridin-1-ium tetrafluoroborate]	4	Trp-62
